What was measured:
Assay in all cases: drug sensitivity score (DSS) from 5-point dose-response viability curve (DSS (area-under-curve based score)); higher = more sensitive (stronger growth inhibition or killing); extreme values may be limits of the assay
Conditions in all cases: exposure time: 72 h; concentration range: 5 concentrations over 10,000-fold range
[1] = test system: CAOV3
Method in brief: (§1)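 Viability of ovarian cancer and normal ovarian cell lines was read by CellTiter-Glo luminescence after 3 days at 37°C and 5% CO2 in 384-well plates holding 1,500 cells per well. Drugs had been dispensed in DMSO or water with an Echo 550 at five concentrations over a 10,000-fold range. Using Breeze software, a drug sensitivity score was assigned per cell line and drug, higher scores meaning more sensitive, and zero means no response.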

[2] = test system: OV90
Method in brief: as §1

[3] = test system: COV362
Method in brief: as §1

[4] = test system: Kuramochi
Method in brief: as §1

[5] = test system: HOSE2C
Method in brief: as §1

[6] = test system: OVCAR5
Method in brief: as §1

[7] = test system: Ovsaho
Method in brief: as §1

[8] = test system: OVCAR4
Method in brief: as §1

[9] = test system: JHOS2
Method in brief: as §1

[10] = test system: COV318
Method in brief: as §1

[11] = test system: OVCAR8
Method in brief: as §1

[12] = test system: HOSE1C
Method in brief: as §1

| SMILES | drug sensitivity score [1] | drug sensitivity score [2] | drug sensitivity score [3] | drug sensitivity score [4] | drug sensitivity score [5] | drug sensitivity score [6] | drug sensitivity score [7] | drug sensitivity score [8] | drug sensitivity score [9] | drug sensitivity score [10] | drug sensitivity score [11] | drug sensitivity score [12] |
| --- | --- | --- | --- | --- | --- | --- | --- | --- | --- | --- | --- | --- |
| COC(=O)N[C@@H](C)CNc1nccc(-c2cn(C(C)C)nc2-c2cc(Cl)cc(NS(C)(=O)=O)c2F)n1 [Encorafenib] | 0.3 | 5.6 | 0 | 0 | 0.5 | 0 | 0.1 | 0 | 0.1 | 0 | 0 | 0 |
| C[C@@H]1CN(C(=O)c2ccc(NC(=O)c3cc(O[C@H](C)c4c(Cl)ccc(F)c4Cl)c(N)nn3)cc2)C[C@H](C)N1 [Ensartinib] | 1.5 | 0.1 | 0 | 0 | 1.9 | 1.8 | 0 | 0 | 0 | 0 | 0 | 0.5 |
| Nc1ccccc1NC(=O)c1ccc(CNC(=O)OCc2cccnc2)cc1 [Entinostat] | 5.5 | 7.4 | 0 | 3.2 | 11.8 | 9.9 | 2.4 | 4.3 | 4.7 | 4.3 | 9.3 | 17.3 |
| c1cn2cc(-c3ccc4cn[nH]c4c3)nc(Nc3ccc(N4CCOCC4)cc3)c2n1 [Entospletinib] | 0 | 0 | 0 | 0 | 0 | 1.3 | 0 | 0 | 0.1 | 0 | 1.7 | 0 |
| CN1CCN(c2ccc(C(=O)Nc3n[nH]c4ccc(Cc5cc(F)cc(F)c5)cc34)c(NC3CCOCC3)c2)CC1 [Entrectinib] | 0.6 | 0 | 0.1 | 0 | 0 | 1 | 1.5 | 1 | 0 | 0 | 0 | 0.1 |
| CNC(=O)c1ccc(N2C(=S)N(c3ccc(C#N)c(C(F)(F)F)c3)C(=O)C2(C)C)cc1F [Enzalutamide] | 0 | 0 | 0 | 1.7 | 0 | 0.2 | 2.3 | 0.1 | 0 | 0.4 | 0 | 0 |
| Cn1cc(C2=C(c3cn(C4CCN(Cc5ccccn5)CC4)c4ccccc34)C(=O)NC2=O)c2ccccc21 [Enzastaurin] | 0 | 0 | 1.6 | 0 | 1.5 | 2.6 | 2 | 0 | 0.1 | 0 | 4.2 | 0.2 |
| NS(=O)(=O)NCCNc1nonc1/C(=N/O)Nc1ccc(F)c(Br)c1 [Epacadostat] | 0 | 0.4 | 0 | 0 | 0 | 0.3 | 0.1 | 0 | 0.9 | 1 | 0 | 0 |
| COc1cccc2c1C(=O)c1c(O)c3c(c(O)c1C2=O)C[C@@](O)(C(=O)CO)C[C@@H]3O[C@H]1C[C@H](N)[C@@H](O)[C@H](C)O1 [Epirubicin] | 9.9 | 5.7 | 1 | 4.6 | 10.3 | 5.1 | 7.1 | 2.9 | 5.7 | 0.7 | 8.9 | 9.6 |
| CCOc1ccccc1-n1c(C(C)N2CCN(C(=O)COc3ccc(Cl)cc3)CC2)nc2ccccc2c1=O (stereo not drawn) [Erastin] | 0.9 | 1.4 | 1.4 | 0 | 0 | 0.9 | 0 | 9.1 | 0 | 1.9 | 7.9 | 0 |
| COc1cc(OC)cc(N(CCNC(C)C)c2ccc3ncc(-c4cnn(C)c4)nc3c2)c1 [Erdafitinib] | 0 | 0 | 0 | 0 | 11.2 | 0 | 0 | 2.6 | 0 | 3.5 | 0 | 3.2 |
| C=C1C[C@@H]2CC[C@@]34C[C@H]5O[C@H]6[C@@H](O3)[C@H]3O[C@H](CC[C@@H]3O[C@H]6[C@H]5O4)CC(=O)C[C@@H]3[C@@H](OC)[C@@H](C[C@H](O)CN)O[C@H]3C[C@H]3O[C@@H](CC[C@@H]1O2)C[C@@H](C)C3=C [Eribulin] | 25.8 | 20.3 | 7.9 | 12.9 | 24.3 | 20.5 | 12 | 6.3 | 9.1 | 4.2 | 24 | 25.8 |
| C#Cc1cccc(Nc2ncnc3cc(OCCOC)c(OCCOC)cc23)c1 [Erlotinib] | 7.5 | 1.5 | 0.1 | 1.6 | 0.3 | 4.4 | 4.8 | 2 | 3 | 0.8 | 2.5 | 0 |
| COc1cc([C@@H]2c3cc4c(cc3[C@@H](O[C@@H]3O[C@@H]5CO[C@@H](C)O[C@H]5[C@H](O)[C@H]3O)[C@H]3COC(=O)[C@H]23)OCO4)cc(OC)c1O [Etoposide] | 9.2 | 6.1 | 0.1 | 1.8 | 10.1 | 4.1 | 7 | 0 | 4.5 | 1.7 | 8.6 | 6.5 |

Source: the supplement of paper PMC11616607
